Data as given in patent US20080207560A1, “Composition For External Use” (priority 2005, published 2008).

Experiment: Solubility in phosphate buffer (statement)
Format: physicochemical

## CC1=C(/C=C/C(C)=C/C=C/C(C)=C/C(=O)Oc2cc(C)c3c(c2)CC[C@@](C)(CCC[C@H](C)CCC[C@H](C)CCCC(C)C)O3)C(C)(C)CCC1 [d-δ-tocopheryl retinoate]
  solubility in phosphate buffer: sparingly soluble
